Source: patent US20250034150A1, “BTK INHIBITORS” (BIOGEN MA INC., priority 2021, published 2025)
Like-named read-outs stand apart in the source and are kept apart here.

What was measured:
[1] = target: T1, BTK (Homo sapiens, UniProt Q06187); experiment: In Vitro BTK Kinase Assay: Btk-PolyGAT-LS Assay; format: biochemical; conditions: active BTK enzyme 0.25 nM, polyGAT 100 nM, 30 minutes, TRF readout; read-out: In Vitro BTK Kinase Assay IC50 Score
T1 construct: purchased Upstate 14-552
Summary of the method: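 IC50 values came from a four-parameter fit, with DMSO controls as 100% activity and EDTA controls as 0%. The signal was TR-FRET from a Tb-PY20 antibody binding fluorescein-polyGAT (100 nM) phosphorylated by 0.25 nM BTK. Kinase reactions used 10 μM ATP, a 4-fold compound titration, and ran 30 minutes before EDTA stop.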

[2] = tested on: CD69 expression on CD19+ B cells in human whole blood; experiment: In Vitro whole blood CD69 Assay; format: cell-based; conditions: B-cell, read-out: In Vitro HWB CD69 Assay IC50 Score
Description: Human heparinized venous blood from health donors was aliquoted into 96-well plate and “spiked” with serial dilutions of formula I compounds in DMSO or with DMSO without drug. The final concentration of DMSO in all wells was 0.1%. The plate was incubated at 37° C. for 30 min. Drug-containing samples were stimulated with 0.1 μg/mL mouse anti-human IgD-dextran (1A62) or 20 μg/mL polyclonal rabbit F(ab′)2 anti-human IgD. Phosphate-buffered saline (PBS) was added to the negative control unstimulated sample and the plates were incubated overnight (18 to 22 hours) at 37° C. Cells were stained with fluorochrome-conjugated anti-CD19 and anti-CD69 antibodies. Lyse/fix solution was used to remove red blood cells by hypotonic lysis and to fix the remaining cells, which were then analyzed by flow cytometry. CD19+ B cells were gated and analyzed for CD69 expression.

[3] = human heparinized whole blood, anti-human IgD stimulation overnight, CD19+ B cells, flow cytometry

T1 sequence (Q06187 whole entry): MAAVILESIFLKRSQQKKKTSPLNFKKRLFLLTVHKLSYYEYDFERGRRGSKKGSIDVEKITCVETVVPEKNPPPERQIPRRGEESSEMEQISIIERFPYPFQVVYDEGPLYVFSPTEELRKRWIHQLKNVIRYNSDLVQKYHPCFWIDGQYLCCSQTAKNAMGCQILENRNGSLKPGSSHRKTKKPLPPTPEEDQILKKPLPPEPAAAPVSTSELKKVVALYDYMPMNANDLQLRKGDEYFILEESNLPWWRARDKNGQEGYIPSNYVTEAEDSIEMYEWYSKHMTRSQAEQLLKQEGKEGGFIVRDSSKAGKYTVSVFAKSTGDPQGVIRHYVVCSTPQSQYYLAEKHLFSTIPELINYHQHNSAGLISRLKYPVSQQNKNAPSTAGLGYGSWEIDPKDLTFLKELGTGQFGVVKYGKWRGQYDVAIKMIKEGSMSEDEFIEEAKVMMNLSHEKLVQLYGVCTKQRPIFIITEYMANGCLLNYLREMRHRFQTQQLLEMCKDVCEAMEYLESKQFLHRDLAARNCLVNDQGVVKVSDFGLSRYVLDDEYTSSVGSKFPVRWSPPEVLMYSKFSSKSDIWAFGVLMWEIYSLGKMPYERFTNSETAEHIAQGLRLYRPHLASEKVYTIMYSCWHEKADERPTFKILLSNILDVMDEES

Structure (SMILES)	IC50 [1] [nM]	IC50 ([2]; Homo sapiens) [nM]	IC50 [2, 3] [nM]
Cn1cc(-c2cc(-c3ccc(CNC(=O)c4noc(C(C)(C)C)n4)c(F)c3)c3ccnn3c2)cn1 [Example 68, 5-(tert-butyl)-N-(2-fluoro-4-(6-(1-methyl-1H-pyrazol-4-yl)pyrazolo[1,5-a]pyridin-4-yl)benzyl)-1,2,4-oxadiazole-3-carboxamide]	< 1	< 1000	–
Cn1cc(-c2cc(-c3ccc(CNC(=O)c4cn(C(C)(C)C)nn4)c(F)c3)c3ccnn3c2)cn1 [Example 69, 1-(tert-butyl)-N-(2-fluoro-4-(6-(1-methyl-1H-pyrazol-4-yl)pyrazolo[1,5-a]pyridin-4-yl)benzyl)-1H-1,2,3-triazole-4-carboxamide]	< 1	–	< 1000
Cn1cc(-c2cc(-c3ccc(CNC(=O)c4nc(C(C)(C)CF)no4)c(F)c3)c3ccnn3c2)cn1 [Example 71, 3-(1-fluoro-2-methylpropan-2-yl)-N-(2-fluoro-4-(6-(1-methyl-1H-pyrazol-4-yl)pyrazolo[1,5-a]pyridin-4-yl)benzyl)-1,2,4-oxadiazole-5-carboxamide]	< 1	–	< 1000
Cn1cc(-c2cn3nccc3c(N3CCC(CNC(=O)c4noc(C5(C)CC5)n4)CC3)n2)cn1 [Example 137, N-((1-(6-(1-methyl-1H-pyrazol-4-yl)pyrazolo[1,5-a]pyrazin-4-yl)piperidin-4-yl)methyl)-5-(1-methylcyclopropyl)-1,2,4-oxadiazole-3-carboxamide]	1 to 10	–	1000 to 10000
Cn1cc(-c2cn3nccc3c(-c3ccc(CNC(=O)c4nc(C(C)(C)C)co4)cc3F)n2)cn1 [Example 110, 4-(tert-butyl)-N-(3-fluoro-4-(6-(1-methyl-1H-pyrazol-4-yl)pyrazolo[1,5-a]pyrazin-4-yl)benzyl)oxazole-2-carboxamide]	1 to 10	–	1000 to 10000
Cn1cc(-c2cn3nccc3c(-c3ccc(CNC(=O)c4cnn(C(C)(C)C)n4)cc3)n2)cn1 [Example 21, 2-(tert-butyl)-N-(4-(6-(1-methyl-1H-pyrazol-4-yl)pyrazolo[1,5-a]pyrazin-4-yl)benzyl)-2H-1,2,3-triazole-4-carboxamide]	< 1	–	1000 to 10000
Cn1cc(-c2cn3nccc3c(N3CC[C@H](CNC(=O)c4cn(C(C)(C)C)nn4)[C@H](F)C3)n2)cn1 [Example 152, 1-(tert-butyl)-N-((3-fluoro-1-(6-(1-methyl-1H-pyrazol-4-yl)pyrazolo[1,5-a]pyrazin-4-yl)piperidin-4-yl)methyl)-1H-1,2,3-triazole-4-carboxamide]	1 to 10	–	1000 to 10000
Cn1cc(-c2cn3nccc3c(-c3ccc(CNC(=O)c4nc(C(C)(C)C)no4)cc3F)n2)cn1 [Example 108, 3-(tert-butyl)-N-(3-fluoro-4-(6-(1-methyl-1H-pyrazol-4-yl)pyrazolo[1,5-a]pyrazin-4-yl)benzyl)-1,2,4-oxadiazole-5-carboxamide]	< 1	–	< 1000
Cn1cc(-c2cn3nccc3c(N3CCC(C)(CNC(=O)c4nc(C(C)(C)C)no4)CC3)n2)cn1 [Example 47, 3-(tert-butyl)-N-((4-methyl-1-(6-(1-methyl-1H-pyrazol-4-yl)pyrazolo[1,5-a]pyrazin-4-yl)piperidin-4-yl)methyl)-1,2,4-oxadiazole-5-carboxamide]	1 to 10	–	1000 to 10000
Cn1cc(-c2cn3nccc3c(N3CCC(C)(CNC(=O)c4nnn(C(C)(C)C)n4)CC3)n2)cn1 [Example 43, 2-(tert-butyl)-N-((4-methyl-1-(6-(1-methyl-1H-pyrazol-4-yl)pyrazolo[1,5-a]pyrazin-4-yl)piperidin-4-yl)methyl)-2H-tetrazole-5-carboxamide]	10 to 1000	–	1000 to 10000
COCCOc1cn2nccc2c(-c2ccc(CNC(=O)c3nc(C4(C)CC4)no3)c(C)c2)n1 [Example 133, N-(4-(6-(2-methoxyethoxy)pyrazolo[1,5-a]pyrazin-4-yl)-2-methylbenzyl)-3-(1-methylcyclopropyl)-1,2,4-oxadiazole-5-carboxamide]	1 to 10	–	1000 to 10000
CC(C)(C)c1nc(C(=O)NCc2ccc(-c3nccn4nccc34)cc2Cl)no1 [Example 82, 5-(tert-butyl)-N-(2-chloro-4-(pyrazolo[1,5-a]pyrazin-4-yl)benzyl)-1,2,4-oxadiazole-3-carboxamide]	1 to 10	–	1000 to 10000
Cn1cc(-c2cn3nccc3c(-c3ccc(CNC(=O)c4nnn(C(C)(C)C)n4)nc3)n2)cn1 [Example 115, 2-(tert-butyl)-N-((5-(6-(1-methyl-1H-pyrazol-4-yl)pyrazolo[1,5-a]pyrazin-4-yl)pyridin-2-yl)methyl)-2H-tetrazole-5-carboxamide]	1 to 10	–	1000 to 10000
Cn1cc(-c2cn3nccc3c(-c3ccc(CNC(=O)c4noc(C(C)(C)C)n4)c(F)c3F)n2)cn1 [Example 88, 5-(tert-butyl)-N-(2,3-difluoro-4-(6-(1-methyl-1H-pyrazol-4-yl)pyrazolo[1,5-a]pyrazin-4-yl)benzyl)-1,2,4-oxadiazole-3-carboxamide]	< 1	–	< 1000
Cc1cc(-c2cc(-c3cnn(C)c3)cn3nccc23)ccc1CNC(=O)c1noc(C2(C)CC2)n1 [Example 65, N-(2-methyl-4-(6-(1-methyl-1H-pyrazol-4-yl)pyrazolo[1,5-a]pyridin-4-yl)benzyl)-5-(1-methylcyclopropyl)-1,2,4-oxadiazole-3-carboxamide]	< 1	< 1000	–
Cc1c(CNC(=O)c2noc(C(C)(C)C)n2)ccc(-c2nc(-c3cnn(C)c3)cn3nccc23)c1F [Example 81, 5-(tert-butyl)-N-(3-fluoro-2-methyl-4-(6-(1-methyl-1H-pyrazol-4-yl)pyrazolo[1,5-a]pyrazin-4-yl)benzyl)-1,2,4-oxadiazole-3-carboxamide]	< 1	–	< 1000
Cn1cc(-c2cn3nccc3c(-c3ccc(CNC(=O)c4nnn(C(C)(C)C)n4)cc3)n2)cn1 [Example 3, 2-(tert-butyl)-N-(4-(6-(1-methyl-1H-pyrazol-4-yl)pyrazolo[1,5-a]pyrazin-4-yl)benzyl)-2H-tetrazole-5-carboxamide]	< 1	–	< 1000
Cn1cc(-c2cn3nccc3c(N3CCC(C)(CNC(=O)c4cnc(C(C)(C)C)o4)CC3)n2)cn1 [Example 45, 2-(tert-butyl)-N-((4-methyl-1-(6-(1-methyl-1H-pyrazol-4-yl)pyrazolo[1,5-a]pyrazin-4-yl)piperidin-4-yl)methyl)oxazole-5-carboxamide]	10 to 1000	–	1000 to 10000
Cc1cc(-c2nc(-c3cnn(C)c3)cc3nccn23)ccc1CN1Cc2nc(C(C)(C)C)sc2C1=O [Example 38, 2-(tert-butyl)-5-(2-methyl-4-(7-(1-methyl-1H-pyrazol-4-yl)imidazo[1,2-c]pyrimidin-5-yl)benzyl)-4,5-dihydro-6H-pyrrolo[3,4-d]thiazol-6-one]	< 1	–	1000 to 10000
Cc1c(CNC(=O)c2noc(C(C)(C)C)n2)ccc(-c2nc(-c3cnn(C)c3)cc3nccn23)c1F [Example 79, 5-(tert-butyl)-N-(3-fluoro-2-methyl-4-(7-(1-methyl-1H-pyrazol-4-yl)imidazo[1,2-c]pyrimidin-5-yl)benzyl)-1,2,4-oxadiazole-3-carboxamide]	< 1	–	< 1000
Cn1cc(-c2cn3nccc3c(-c3ccc(CNC(=O)c4cn(C(C)(C)C)nn4)c(F)c3F)n2)cn1 [Example 93, 1-(tert-butyl)-N-(2,3-difluoro-4-(6-(1-methyl-1H-pyrazol-4-yl)pyrazolo[1,5-a]pyrazin-4-yl)benzyl)-1H-1,2,3-triazole-4-carboxamide]	< 1	–	< 1000
Cn1cc(-c2cn3nccc3c(N3CCC(F)(CNC(=O)c4noc(C(C)(C)C)n4)CC3)n2)cn1 [Example 160, 5-(tert-butyl)-N-((4-fluoro-1-(6-(1-methyl-1H-pyrazol-4-yl)pyrazolo[1,5-a]pyrazin-4-yl)piperidin-4-yl)methyl)-1,2,4-oxadiazole-3-carboxamide]	1 to 10	–	1000 to 10000
Cc1cc(-c2nc(-c3cnn(C)c3)cn3nccc23)ccc1CN1CCN(CC(C)C)C(C)C1=O (centres unmarked) [Example 36, 4-isobutyl-3-methyl-1-(2-methyl-4-(6-(1-methyl-1H-pyrazol-4-yl)pyrazolo[1,5-a]pyrazin-4-yl)benzyl)piperazin-2-one]	1 to 10	–	1000 to 10000
Cn1cc(-c2cn3nccc3c(-c3ccc(CNC(=O)c4noc(C(C)(C)C)n4)c(F)c3)n2)cn1 [Example 117, 5-(tert-butyl)-N-(2-fluoro-4-(6-(1-methyl-1H-pyrazol-4-yl)pyrazolo[1,5-a]pyrazin-4-yl)benzyl)-1,2,4-oxadiazole-3-carboxamide]	< 1	–	< 1000
Cn1cc(-c2cn3nccc3c(-c3ccc(CNC(=O)c4nc(C(C)(C)CF)no4)c(F)c3)n2)cn1 [Example 13, 3-(1-fluoro-2-methylpropan-2-yl)-N-(2-fluoro-4-(6-(1-methyl-1H-pyrazol-4-yl)pyrazolo[1,5-a]pyrazin-4-yl)benzyl)-1,2,4-oxadiazole-5-carboxamide]	< 1	–	< 1000
